Experimental data: article PMC5267425, “Identification of small molecule modulators of HIV-1 Tat and Rev protein accumulation” (Retrovirology, 2017)
Values joined by “and” are separate entries in the source; they are usually repeats but may differ in a detail not shown here. Equal values may be shown once.

Tested on: alternative splicing of host transcripts in HeLa rtTA HIV∆Mls cells
Assay: RT-PCR of host alternative splicing events (PSI), capillary electrophoresis
Type: cell-based
Set-up: PSI ZNF827_1 / PSI RAN_1 / PSI SEC24B_1 / PSI SMN2_1 / PSI TRIM37_1 / PSI RPS24_1 / PSI PDCL_1 / PSI SMN2_2 / PSI SETD5_1 / PSI RAI14_1 / PSI TPM1_1 / PSI SPAG9_1 / PSI POLDIP3_1 / PSI SRPK2_1 / PSI POMT1_1: concentration or dose not given beside the values
Protocol: To assess the effect of compounds on expression/alternative splicing of cellular RNA, two approaches were used. For both, total RNA was prepared from DMSO or compound-treated cells. In the first assay, samples were assayed by medium throughput RT-PCR to determine the inclusion levels of alternatively spliced exons and splice sites located in 73 selected events. 73 primer sets containing a fluorescently (5-FAM) labeled primer for each, were used in RT-PCR. PCR products generated were denatured in formamide and quantified using ABI Prism capillary sequencer (Life Technologies). The fragment analysis was performed on the PeakScanner software (Life Technologies) in batch mode and automated using custom scripts written in Python. The inclusion level of each exon was calculated as the amount of transcripts carrying the alternative exon relative to the total amount of all transcripts detected in the PCR reaction and results are summarized for compound-treatment in comparison to DMSO treatment. In the second assay, extracted RNA was processed using the Illumina TruSeq RNA Sample Preparation Kit (Illumina) according to the manufacturer’s instructions. The cDNA library generated was validated (passed quality control on a Bioanalyzer 1000 DNA chip (Agilent)), normalized and pooled for cluster generation. cDNA libraries were sequenced on the Illumina HiSeq 2500 (paired-end, 125 bp) with version 4 chemistry following manufacturer’s protocols. The full human genome and transcriptomic sequences were downloaded from the UCSC Genome Browser (genome.ucsc.edu) database and Ensembl (www.ensembl.org), respectively, as described by Irimia et al.. Exon annotations and genomic coordinates for alternative splicing (AS) analysis were derived from tables downloaded from the UCSC Genome Browser database. To determine gene expression (GE) or alternative splicing (AS) changes in an unbiased way, the effective number of unique mappable positions in each transcript (i.e. the effective length) was determined by aligning sequences with unique transcriptomic alignment to the human genome using Bowtie. Reads with one unique genomic alignment were then aligned against the canonical transcriptome and, for each transcript, the number of reads with one unique transcriptomic alignment were counted. The expression level of genes was quantified as corrected ‘reads per kilobase of exon model per million mapped reads’ (cRPKM), a widely used metric to estimate gene expression levels. The expression cutoff was 0.5 cRPKM, corresponding to the transcript of the gene being present if there were ≥10 reads that mapped uniquely to a single genomic locus. Approximately 19,847 Ensembl annotated protein-coding genes were compared to create a gene list of differentially expressed genes. Genes were considered differentially expressed if fold changes in cRPKM was ≥2 in compound-treated versus DMSO-treated samples.

COc1ccc(C=NNC(=O)c2ccccc2O)cc1O [Compound 892, 2-hydroxy-N′-(3-hydroxy-4-methoxybenzylidene)benzohydrazide]
DPSI EIF4A2_1 (chr7:187988792-187988899, mean PSI 5193892 minus DMSO, n=3, P Value 0.014): 13.67% | PSI EIF4A2_1 (chr7:187988899-187988904, HeLa rtTA-HIV-DMls cells, replicates 25, 26, 27): 22.00 and 26.00 and 31.00 | DPSI EIF4A2_1 (chr7:187988899-187988904, mean PSI 5193892 minus DMSO, n=3, P Value 0.035): 8.33% | PSI PDCL_1 (chr9:124628716-124628892, HeLa rtTA-HIV-DMls cells, replicates 25, 26, 27): 90.00 and 91.00 and 93.00 | DPSI PDCL_1 (chr9:124628716-124628892, mean PSI 5193892 minus DMSO, n=3, P Value 0.152): 1.67% | PSI GM130_1 (chr9:130069293-130069374, HeLa rtTA-HIV-DMls cells, replicates 25, 26, 27): 23.00 and 18.00 and 15.00 | DPSI GM130_1 (chr9:130069293-130069374, mean PSI 5193892 minus DMSO, n=3, P Value 0.007): -14.33% | PSI POMT1_1 (chr9:133368281-133368521, HeLa rtTA-HIV-DMls cells, replicates 25, 26, 27): 50.00 and 37.00 and 28.00 | DPSI POMT1_1 (chr9:133368281-133368521, mean PSI 5193892 minus DMSO, n=3, P Value 0.626): -4.00% | PSI POMT1_1 (chr9:133371321-133371428, HeLa rtTA-HIV-DMls cells, replicates 25, 26, 27): 95.00 and 94.00 and 63.00 | DPSI POMT1_1 (chr9:133371321-133371428, mean PSI 5193892 minus DMSO, n=3, P Value 0.627): -5.67% | PSI RPS24_1 (chr10:79467729-79467746, HeLa rtTA-HIV-DMls cells, replicates 25, 26, 27): 8.00 and 13.00 and 12.00 | DPSI RPS24_1 (chr10:79467729-79467746, mean PSI 5193892 minus DMSO, n=3, P Value 0.079): 3.67% | PSI ADD3_1 (chr10:111882053-111882148, HeLa rtTA-HIV-DMls cells, replicates 25, 26, 27): 42.00 and 60.00 and 62.00 | DPSI ADD3_1 (chr10:111882053-111882148, mean PSI 5193892 minus DMSO, n=3, P Value 0.701): 3.33% | PSI CTNND1_1 (chr11:57318058-57318129, HeLa rtTA-HIV-DMls cells, replicates 25, 26, 27): 82.00 and 76.00 and 100.00 | PSI APLP2_1 (chr11:129498717-129498884, HeLa rtTA-HIV-DMls cells, replicates 25, 26, 27): 15.00 and 18.00 and 19.00 | DPSI APLP2_1 (chr11:129498717-129498884, mean PSI 5193892 minus DMSO, n=3, P Value 0.009): -6.00% | PSI ERC1_1 (chr12:1091641-1091725, HeLa rtTA-HIV-DMls cells, replicates 25, 26, 27): 36.00 and 55.00 and 52.00 | PSI FGFR1OP2_1 (chr12:27004715-27004828, HeLa rtTA-HIV-DMls cells, replicates 25, 26, 27): 22.00 and 15.00 (2×) | DPSI FGFR1OP2_1 (chr12:27004715-27004828, mean PSI 5193892 minus DMSO, n=3, P Value 0.030): -11.67% | PSI DNM1L_1 (chr12:32782066-32782143, HeLa rtTA-HIV-DMls cells, replicates 25, 26, 27): 24.00 and 37.00 and 39.00 | PSI DNM1L_1 (chr12:32782465-32782497, HeLa rtTA-HIV-DMls cells, replicates 25, 26, 27): 38.00 and 52.00 and 53.00 | DPSI DNM1L_1 (chr12:32782465-32782497, mean PSI 5193892 minus DMSO, n=3, P Value 0.447): -5.67% | PSI NAP1L1_1 (chr12:74747418-74747520, HeLa rtTA-HIV-DMls cells, replicates 25, 26, 27): 76.00 and 78.00 and 83.00 | DPSI NAP1L1_1 (chr12:74747418-74747520, mean PSI 5193892 minus DMSO, n=3, P Value 0.123): -5.67% | PSI NAP1L1_1 (chr12:74748956-74749041, HeLa rtTA-HIV-DMls cells, replicates 25, 26, 27): 76.00 and 75.00 and 79.00 | DPSI NAP1L1_1 (chr12:74748956-74749041, mean PSI 5193892 minus DMSO, n=3, P Value 0.018): -7.00% | PSI MVK_1 (chr12:108501990-108502134, HeLa rtTA-HIV-DMls cells, replicates 25, 26, 27): 78.00 and 100.00 (2×) | DPSI MVK_1 (chr12:108501990-108502134, mean PSI 5193892 minus DMSO, n=3, P Value 0.179): 16.00% | PSI MVK_1 (chr12:108503583-108503738, HeLa rtTA-HIV-DMls cells, replicates 25, 26, 27): 64.00 and 74.00 and 45.00 | DPSI MVK_1 (chr12:108503583-108503738, mean PSI 5193892 minus DMSO, n=3, P Value 0.477): 8.33% | PSI RAN_1 (chr12:129923082-129923127, HeLa rtTA-HIV-DMls cells, replicates 25, 26, 27): 93.00 (2×) and 94.00 | DPSI RAN_1 (chr12:129923082-129923127, mean PSI 5193892 minus DMSO, n=3, P Value 0.018): -4.67% | PSI MBNL2_1 (chr13:96807051-96807104, HeLa rtTA-HIV-DMls cells, replicates 25, 26, 27): 11.00 and 30.00 and 29.00 | DPSI MBNL2_1 (chr13:96807051-96807104, mean PSI 5193892 minus DMSO, n=3, P Value 0.187): 10.33%
